Experimental findings from US12428415B2, “Matriptase 2 inhibitors and uses thereof” (Disc Medicine, Inc., priority 2018, dated 2025) are described below.

As usually defined, the inhibition is the drop in the measured response relative to a control, in per cent.

The test addresses T1, Human Recombinant Matriptase 2 (Homo sapiens, UniProt Q8IU80).
T1 construct: purchased Enzo Life Sciences (an in-house preparation was also used) ALX-201-752-1
T1 sequence (Q8IU80 1-811): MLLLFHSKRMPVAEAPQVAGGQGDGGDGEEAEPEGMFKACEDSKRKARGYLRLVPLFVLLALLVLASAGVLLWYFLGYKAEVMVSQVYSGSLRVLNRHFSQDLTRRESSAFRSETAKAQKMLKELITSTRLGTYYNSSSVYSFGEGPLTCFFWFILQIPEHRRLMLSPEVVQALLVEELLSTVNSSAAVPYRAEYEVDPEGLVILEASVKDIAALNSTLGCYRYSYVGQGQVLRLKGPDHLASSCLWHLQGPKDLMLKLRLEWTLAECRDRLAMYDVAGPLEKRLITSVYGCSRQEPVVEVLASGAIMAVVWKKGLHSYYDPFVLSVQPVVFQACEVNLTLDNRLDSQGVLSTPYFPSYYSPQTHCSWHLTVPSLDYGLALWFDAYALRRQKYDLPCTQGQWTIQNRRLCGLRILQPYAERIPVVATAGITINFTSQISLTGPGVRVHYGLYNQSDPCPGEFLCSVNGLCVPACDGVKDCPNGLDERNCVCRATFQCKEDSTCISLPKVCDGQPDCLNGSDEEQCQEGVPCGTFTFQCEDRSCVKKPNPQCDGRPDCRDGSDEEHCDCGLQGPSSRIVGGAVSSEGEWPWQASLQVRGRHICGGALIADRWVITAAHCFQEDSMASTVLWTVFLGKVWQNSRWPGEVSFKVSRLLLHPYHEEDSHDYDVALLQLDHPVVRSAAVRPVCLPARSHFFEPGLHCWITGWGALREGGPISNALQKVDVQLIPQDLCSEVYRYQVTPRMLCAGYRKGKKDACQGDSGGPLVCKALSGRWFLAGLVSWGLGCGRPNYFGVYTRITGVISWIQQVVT
As to the kind of experiment: Matriptase 2 fluorescence based inhibition assay, Method B (50 mM TRIS pH 7.5, 150 mM NaCl, 0.01% gelatin). Particulars: 1 uM compound, Assay Used = B (Method B); for inhibition at 1 µM: read-out: Mar-2 % inhibition at 1 uM. The format is biochemical. A digest of the protocol:
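Fluorogenic substrate Boc-Gln-Ala-Arg-7-amido-4-methylcoumarin (100 μM) cleavage read at Ex 360/Em 480 nm 60 min after addition, following 30 min enzyme–compound preincubation at 25° C. Enzyme was 7 nM commercial or 15 nM in-house; DMSO 1%. IC50s fitted by non-linear sigmoidal regression.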

`N=C(N)c1ccc2cc(C(=O)O)n(Cc3cc(Cc4ccccc4)cc4ccccc34)c2c1` [Compound I-649]: the inhibition at 1 µM lay in the range of 0 to 25%.
Regarding `NC(=NO)c1ccc2cc(C(=O)O)n(Cc3cccc4ccccc34)c2n1` [Compound I-650], the inhibition at 1 µM fell in the range of 0 to 25%.
For the molecule `N=C(N)c1ccc2c(c1)cc(C(=O)O)n2Cc1cccc2ccccc12` [Compound I-651], the inhibition at 1 µM lay in the range of 0 to 25%.
For `N=C(N)c1ccc2cc(C(=O)N[C@H]3CC[C@H](N)CC3)n(Cc3c(Cl)c(Sc4ccccc4)cc4ccccc34)c2c1` [Compound I-652], the inhibition at 1 µM lay in the range of 50 to 75%.
In the case of `N=C(N)c1ccc2cc(C(=O)O)n(Cc3c(Cl)c(Sc4ccccc4)cc4ccccc34)c2c1` [Compound I-653], the inhibition at 1 µM was in the range of 0 to 25%.
As to `N=C(N)c1ccc2cc(C(=O)O)n(-c3ccc4ccccc4c3)c2c1` [Compound I-654], the inhibition at 1 µM was 0 to 25%.
As for `N=C(N)c1ccc2cc(C(=O)O)n(Cc3cc(Oc4ccsc4)cc4ccccc34)c2c1` [Compound I-655], the inhibition at 1 µM fell in the range of 50 to 75%.
Same read-out and setting: under `N=C(N)c1ccc2cc(C(=O)O)n(Cc3cc(Nc4ccccc4)cc4ccccc34)c2c1` [Compound I-656] stands 50 to 75%.
For the molecule `N#Cc1c(C(=O)N[C@H]2CC[C@H](N)CC2)n(Cc2cccc3ccccc23)c2cc(C(=N)N)ccc12` [Compound I-657], the “Mar-2 % inhibition at 1 uM” value is “A (A represents 0%≤I≤25%)”.
As for `CCOC(=O)c1cc2ccc(C(N)=NO)cc2n1Cc1cc(S(=O)(=O)c2ccccc2)cc2ccccc12` [Compound I-658], the inhibition at 1 µM was 0 to 25%.
Turning to `NC(=NO)c1ccc2cc(C(=O)O)n(Cc3cc(S(=O)(=O)c4ccccc4)cc4ccccc34)c2c1` [Compound I-659], the inhibition at 1 µM fell in the range of 0 to 25%.
The same measure, in the same setting: to `N/C(=N\O)c1ccc2c(c1)cc(C(=O)O)n2Cc1cccc2ccccc12` [Compound I-660] belongs 0 to 25%.
Still for that read-out and setting: under `N=C(N)c1ccc2cc(C(=O)O)n(Cc3cc(Oc4ccccc4Cl)cc4ccccc34)c2c1` [Compound I-661] stands 25 to 50%; under `CCOC(=O)c1cc2ccc(C(=N)N)cc2n1Cc1cc(Oc2ccccc2)cc2ccccc12` [Compound I-662], 25 to 50%.
Regarding `CCOC(=O)c1cc2ccc(C(N)=NO)cc2n1Cc1cc(Oc2ccccc2)cc2ccccc12` [Compound I-663], the inhibition at 1 µM fell in the range of 0 to 25%.
`CCn1c(C(=O)N[C@H]2CC[C@H](N)CC2)c(Cc2cccc3ccccc23)c2cc(C(=N)NN)ccc21` [Compound I-664]: the inhibition at 1 µM fell in the range of 0 to 25%.
Turning to `NC(=NO)c1ccc2cc(C(=O)O)n(Cc3cc(Oc4ccccc4)cc4ccccc34)c2c1` [Compound I-665], the inhibition at 1 µM was in the range of 0 to 25%.
Still for that read-out and setting: under `N=C(N)c1ccc2cc(C(=O)NC3CCC(N)CC3)n(Cc3ccc(CN)c4ccccc34)c2c1` (stereo not shown) [Compound I-666] stands 50 to 75%; under `N=C(N)c1ccc2cc(C(=O)O)n(Cc3c[nH]c4ccccc34)c2n1` [Compound I-667], 25 to 50%.
For the molecule `COc1ccc(Cn2c(C(=O)N[C@H]3CC[C@H](N)CC3)cc3ccc(C(=N)N)cc32)c2ccccc12` [Compound I-668], the inhibition at 1 µM was 75 to 100%.
Regarding `CCOC(=O)c1cc2ccc(C(=N)N)cc2n1Cc1cc(S(=O)(=O)c2ccccc2)cc2ccccc12` [Compound I-669], the inhibition at 1 µM was in the range of 25 to 50%.
As to `N=C(N)c1ccc2cc(C(=O)N[C@H]3CC[C@H](N)CC3)n(Cc3cc(Oc4ncccn4)cc4ccccc34)c2c1` [Compound I-670], the inhibition at 1 µM fell in the range of 75 to 100%.
Consider `N=C(N)c1ccc2cc(NC(=O)[C@H]3CC[C@H](N)CC3)n(Cc3cccc4ccccc34)c2c1` [Compound I-671], for which the “Mar-2 % inhibition at 1 uM” value is on record as “C (C represents 50%≤I≤75%)”.
With `N=C(N)c1ccc2cc(C(=O)O)n(Cc3cccc4c(COCc5ccccc5)cccc34)c2c1` [Compound I-672], the inhibition at 1 µM fell in the range of 75 to 100%.
For `N=C(N)c1ccc2cc(C(=O)N[C@H]3CC[C@H](N)CC3)n(Cc3ccc(C(=O)O)c4ccccc34)c2c1` [Compound I-673], the “Mar-2 % inhibition at 1 uM” value is on record as “B (B represents 25%≤I≤50%)”.
